In patent US20220251092A1, “CASEIN KINASE 1EPSILON INHIBITOR, PHARMACEUTICAL COMPOSITION AND APPLICATION THEREOF” (HANGZHOU HEALZEN THERAPEUTICS CO., LTD., priority 2019, published 2022):
Like-named read-outs stand apart in the source and are kept apart here. Blank lines part the entries; values can stand above or below the molecule they belong to.

Columns and labels:
CK1ε [1] = biological target: T1, CK1ε (Homo sapiens, UniProt P49674); settings: cited from earlier work
CK1ε [2] = biological target: T1, CK1ε; experiment: CK1ε kinase activity assay (Caliper, FAM-labelled polypeptide); type: biochemical
Method: The in-vitro assay of inhibitory activity of the compound herein against CK1ε kinase was:
(1) preparation of 1× kinase basic buffer and stop buffer: • 1×kinase basic buffer: 50 mM HEPES, pH 7.5; and 0.0015% Brij-35; • stop buffer: 100 mM HEPES, pH 7.5; 0.015% Brij-35; 0.2% Coating Reagent #3; and 50 mM EDTA.
(2) preparation of the test compound: • a 50× (“n×” represents dilution factor, same hereafter) stock solution of the compound with DMSO (10 mM, DMSO) to obtain stock solution I for use; […] of stock solution I was placed in a 96-well plate, each compound sample was diluted by 5-fold serial dilution till 10 concentrations was obtained while ensuring 10 μl of drug solution in each well; meanwhile, 100 μl of DMSO was used as a blank control group and a negative control group without enzyme substrate; • a separate 96-well plate was prepared, and to 10 μl of the above compound,
90 μl of 1× kinase foundation buffer was added, mixed well for 10 min to obtain a mixture.

OCI-LY10 cells = experiment: In-vitro anti-tumor activity, OCI-LY10 cells, CCK-8; type: cell-based, human; settings: for IC50: Homo sapiens, OCI-LY10, 72h, CCK-8
Method: The in-vitro anti-tumor activities of the synthesized compounds were determined using a diffuse large B-cell lymphoma (OCI-LY10) cell strain:
Drug preparation method: The drug was dissolved in DMSO to make a stock solution of 10 mM and diluted in a certain ratio to obtain 7 different concentrations (test concentration: 100×).
In vitro culture of tumor cells: The selected OCI-LY10 cells were incubated with a medium of IMDM+fetal bovine serum in a 5% CO2 cell culture incubator at 37° C., and were passaged when the cell density grew to 70-90% (adherent cells were passaged after digestion with Duck's EDTA) for later experiments as needed. Four thousand cells/200 μl/well were seeded in a 96-well plate and incubated overnight in a 5% CO2 cell incubator at 37° C. Two μl of the compounds were dispensed in each well at final concentrations of […], and incubation was performed together for 72h in a 5% CO2 cell incubator at 37° C. with DMSO (2%) as control. After 72h, 20 μl of CCK-8 solution was added and the plate was placed in a 5% CO2 cell culture incubator at 37° C. for 4h. Wells with the corresponding amounts of cell culture medium and CCK-8 solution but without cells were used as blank controls. The absorbance (OD values) was measured at 450 nm using an enzyme marker, and the obtained data were used to calculate the IC50.

OCI-LY10 xenograft tumor = experiment: In vivo pharmacodynamic study, OCI-LY10 subcutaneous xenograft in SCID mice; design: species or system SCID mouse; settings: combinations with 17a 6 mg/kg PO QD
Method: OCI-LY10 cells were cultured in an IMDM medium containing 20% FBS and maintained in a 5% CO2 incubator at 37° C. with saturated humidity. OCI-LY10 cells of logarithmic phase were collected and resuspended in an IMDM basic medium containing 50% Matrigel, and the cell concentration was adjusted to 5×10^7/ml. Subcutaneous inoculation of 0.1 ml of the cell suspension was performed aseptically in the right dorsum of mice at a concentration of 5×10^6/0.1 ml/mouse. Once the tumor volume reached about 150 mm^3, the animals were randomly grouped according to tumor volume so that the difference in tumor volume between the groups was less than 10% of the mean value. The date of grouping was recorded as Day 0, and drug administration was started based on the body weight of the animals. During drug administration, body weight of certain animals decreased by more than 15% compared to Day 0 (BWL≥15%), drug administration was discontinued for these animals until their body weight recovered (BWL<15%). The body weight and tumor volume of the animals were measured twice a week during the experiment, and clinical signs were observed and recorded daily.
The efficacy in terms of tumor volume was evaluated by the relative tumor proliferation rate T/C ratio, and T/C (%) was calculated as TRTV/CRTV[…], where TRTV is the relative tumor volume (RTV) of the treatment group and CRTV is the RTV of the negative control group. The RTV was calculated as Vt/V0, where V0 is the tumor volume at the time of grouping and Vt is the tumor volume at each measurement. The drug is considered effective with T/CP≤40% according to NMPA guidelines.
The efficacy in terms of tumor weight was evaluated by TGI (tumor weight inhibition) values, TGI 0%=(TWC−TWT)/TWC×[…], where TWC is tumor weight of control group, and TWT is tumor weight of treatment group. The drug is considered effective with TGI≥58% according to NIH guidelines.

Karpas299 cells = experiment: In-vitro anti-tumor activity, Karpas299 cells, CellTiter-Glo; type: cell-based; settings: Homo sapiens, KARPAS-299, Karpas299, 72h
Method: In-vitro anti-tumor activities of the synthesized compounds were determined using Human Non-Hodgkin's Ki-positive Large Cell Lymphoma (Karpas299) cell strain:
Drug preparation method: The drugs were dissolved in DMSO to make stock solutions of 10 mM and diluted in a certain ratio to obtain 7 different concentrations (test concentration: 100×).
In vitro culture of tumor cells: The selected Karpas299 cells were incubated in a 500 CO2 cell culture incubator at 37° C. using RPMI-1640^+ fetal bovine serum medium. Four thousand cells/100 μl/well were seeded in a 96-well plate and incubated overnight in a 500 CO2 cell incubator at 37° C. Five μl of the compounds were dispensed in each well at final concentrations of 10 μM, 2.5 μM, 0.625 μM, 0.15625 μM, 0.039063 μM, 0.0097656 μM and 0.0024414 μM, and incubation was performed together for 72h in a 5% CO2 cell incubator at 37° C. with DMSO (0.10%) as controls. After 72h, the CellTiter-Glo buffer and reaction substrate were taken out of the fridge and equilibrated to room temperature. The buffer was then poured into a brown bottle containing the substrate. The bottle was turned up and down so that the substrate powder was fully dissolved. […] A white sealing film was attached to the bottom of the well plate, and the chemiluminescence signal of each well was detected with an Enspire microplate reader. […]

[3] = Bioavailability study in rats; type: in vivo, SD rats; settings: rat; for AUC(0-t) / Cmax / Tmax / bioavailability: Sprague-Dawley, plasma; for bioavailability: PO 10 mg/kg vs IV 1 mg/kg of II-A-7a
Method: SD rats were used as the experimental animals, to which drugs of 10 mg/kg were administered by gavage and 1 mg/kg by tail intravenous injection. […] Whole blood (0.3 ml) was collected, 0.1 ml of plasma was separated by centrifugation at 2000 g for 10 min, and the samples were analyzed by LC-MS/MS.

[4] = Table 4, 100 mg/kg PO QD Day 0-38
[5] = Table 5, 50 mg/kg PO QD Day 0-38

T1 sequence (P49674 whole entry): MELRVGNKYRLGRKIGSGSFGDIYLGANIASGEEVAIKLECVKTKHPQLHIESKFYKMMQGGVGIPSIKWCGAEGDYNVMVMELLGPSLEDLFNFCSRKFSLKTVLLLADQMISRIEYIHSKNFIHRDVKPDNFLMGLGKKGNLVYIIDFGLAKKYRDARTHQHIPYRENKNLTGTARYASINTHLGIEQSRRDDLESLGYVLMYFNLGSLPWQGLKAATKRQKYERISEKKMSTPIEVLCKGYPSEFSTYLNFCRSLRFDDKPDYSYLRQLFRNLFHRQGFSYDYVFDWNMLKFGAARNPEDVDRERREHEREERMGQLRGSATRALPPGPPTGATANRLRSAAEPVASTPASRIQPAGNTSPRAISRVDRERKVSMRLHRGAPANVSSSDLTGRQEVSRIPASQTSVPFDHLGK

SMILES: CC[C@@H](c1nc2cccc(F)c2c(=O)n1-c1ccccc1)n1nc(-c2ccc(OC(C)C)c(F)c2)c2c(N)ncnc21 [CUX-03166]
IC50 (CK1ε [1]; literature values in WO2017079558A1, read-out: CK1ε (IC50)): 81.2 µM

SMILES: CC(C)Oc1ccc(-c2nn([C@@H](C)c3nc4cccc(F)c4c(=O)n3-c3ccccc3)c3ncnc(N)c23)cc1F [CUX-031723]
IC50 (CK1ε [1]; WO2017079558A1, read-out: IC50 of CK1ε): 9.36 µM

IC50 (CK1ε [2]): 164 nM
IC50 (OCI-LY10 cells; read-out: IC50): 142 nM
SMILES: COc1ccc(-c2nn(C(C)c3nc4ccccc4c(=O)n3-c3ccccc3)c3ncnc(N)c23)c(F)c1F (stereo not drawn) [II-A-1, 2-(1-(4-amino-3-(2,3-difluoro-4-methoxyphenyl)-1H-pyrazolo[3,4-d]pyrimidin-1-yl)ethyl)-3-phenylquinazolin-4(3H)-one]
RTV Day 39 (OCI-LY10 xenograft tumor; [4]): 2.45 ± 0.50
T/C (%) Day 39 (OCI-LY10 xenograft tumor; [4]): 35.40%
TGI (%) (OCI-LY10 xenograft tumor; [4]): 63.91%
Tumor weight (OCI-LY10 xenograft tumor; [4]): 0.288 ± 0.064 g

IC50 (CK1ε [2]): 108 nM
IC50 (OCI-LY10 cells; read-out: IC50): 112 nM
IC50 (Karpas299 cells): 988 nM
SMILES: COc1ccc(-c2nn([C@@H](C)c3nc4ccccc4c(=O)n3-c3ccccc3)c3ncnc(N)c23)c(F)c1F [II-A-1a, (S)-2-(1-(4-amino-3-(2,3-difluoro-4-methoxyphenyl)-1H-pyrazolo[3,4-d]pyrimidin-1-yl)ethyl)-3-phenylquinazolin-4(3H)-one]
RTV Day 39 (OCI-LY10 xenograft tumor; [5]): 1.69 ± 0.27
T/C (%) Day 39 (OCI-LY10 xenograft tumor; [5]): 23.12%
TGI (%) (OCI-LY10 xenograft tumor; [5]): 77.46%
Tumor weight (OCI-LY10 xenograft tumor; [5]): 0.270 ± 0.043 g

IC50 (CK1ε [2]): 97 nM
fold increase of inhibitory activity against CK1ε (CK1ε [2]; compared to compound C): 7.2 fold
IC50 (OCI-LY10 cells; read-out: IC50): 22 nM
IC50 (OCI-LY10 cells; read-out: IC50 value): 22 nM
SMILES: COc1ccc(-c2nn(C(C)c3nc4cccc(Cl)c4c(=O)n3-c3ccccc3)c3ncnc(N)c23)c(F)c1F (stereo not drawn) [II-A-7, 2-(1-(4-amino-3-(2,3-difluoro-4-methoxyphenyl)-1H-pyrazolo[3,4-d]pyrimidin-1-yl)ethyl)-5-chloro-3-phenylquinazolin-4(3H)-one]
fold increase of OCI-LY10 proliferation inhibitory activity (OCI-LY10 cells; compared to compound C): 123 fold
RTV Day 39 (OCI-LY10 xenograft tumor; [4]): 2.23 ± 0.15
T/C (%) Day 39 (OCI-LY10 xenograft tumor; [4]): 32.35%
TGI (%) (OCI-LY10 xenograft tumor; [4]): 66.29%
Tumor weight (OCI-LY10 xenograft tumor; [4]): 0.269 ± 0.028 g

SMILES: COc1ccc(-c2nn([C@@H](C)c3nc4cccc(Cl)c4c(=O)n3-c3ccccc3)c3ncnc(N)c23)c(F)c1F [II-A-7a, (S)-2-(1-(4-amino-3-(2,3-difluoro-4-methoxyphenyl)-1H-pyrazolo[3,4-d]pyrimidin-1-yl)ethyl)-5-chloro-3-phenylquinazolin-4(3H)-one]
IC50 (CK1ε [2]): 45 nM
IC50 (OCI-LY10 cells; read-out: IC50): 10.2 nM
IC50 (Karpas299 cells): 855 nM
RTV Day 39 (OCI-LY10 xenograft tumor; [5]): 2.11 ± 0.60
T/C (%) Day 39 (OCI-LY10 xenograft tumor; [5]): 28.86%
TGI (%) (OCI-LY10 xenograft tumor; [5]): 72.70%
Tumor weight (OCI-LY10 xenograft tumor; [5]): 0.327 ± 0.048 g
AUC(0-t) ([3]; IV 1 mg/kg): 7200 ng·h/mL
Cmax ([3]; IV 1 mg/kg): 1520 ng/mL
AUC(0-t) ([3]; PO 10 mg/kg): 5780 ng·h/mL
Cmax ([3]; PO 10 mg/kg): 456 ng/mL
Tmax ([3]; PO 10 mg/kg): 6 h
bioavailability [3]: 8.02%

SMILES: COc1ccc(-c2nn([C@@H](C)c3nc4cccc(Cl)c4c(=O)n3-c3ccccc3)c3ncnc(N)c23)c(F)c1F.O=S(=O)(O)O [II-D-6, (S)-2-(1-(4-amino-3-(2,3-difluoro-4-methoxyphenyl)-1H-pyrazolo[3,4-d]pyrimidin-1-yl)ethyl)-5-chloro-3-phenylquinazolin-4(3H)-one sulfate]
AUC(0-t) ([3]; PO 10 mg/kg): 21500 ng·h/mL
Cmax ([3]; PO 10 mg/kg): 2130 ng/mL
Tmax ([3]; PO 10 mg/kg): 1.67 h
bioavailability [3]: 29.8%
increase in bioavailability ([3]; salt vs compound in the free state (II-A-7a)): 3.7 fold
